What was measured:
Format in all cases: biochemical
[1] = target: T1, reverse transcriptase Superscript II (Moloney murine leukemia virus, UniProt P03355, D1183G/D1242N/E1221Q); test: Reverse transcription activity of Superscript II at elevated temperature (cDNA synthesis from in vitro transcribed RNA, denaturing agarose electrophoresis, autoradiography); conditions: for electrophoretic pattern: full length cDNAs versus short products from prematurely terminated synthesis: reaction at 60° C., 20% of the substance and 20% glycerol in buffer (Lane 3 condition)
T1 construct: Superscript II is known as a reverse transcriptase (RNA-dependent DNA polymerase)
Protocol: To examine reverse transcription activity of Superscript II at an elevated temperature, cDNAs were synthesized using RNAs transcribed in vitro by T7 RNA polymerase as template and the products were evaluated. By using RNAs as a template transcribed in vitro and evaluating the products by electrophoresis, reverse transcription efficiencies of the samples can be compared with one another and thereby non-specific transcription termination which leads to premature termination of reverse transcription and/or reduction of reaction efficiency can be evaluated. The template RNAs were prepared by transcribing pBluescript II SK, which had been cleaved into a linear form with a restriction enzyme NotI, with T7 RNA polymerase in vitro. This reaction was initiated from T7 promoter described in the instruction of pBluescript II SK.
As a control, the following standard buffer condition was used: 50 mM Tris-HCl, pH 8.3, 75 mM KCl, 3 mM MgCl2, 10 mM dithiothreitol, each 0.75 mM of dNTPs (dATP, dGTP, dCTP and dTTP).
In the above standard buffer condition, 1 μg of template RNA, 400 ng of primer (20mer SK primer, […]) and 200 units of Superscript II were prepared and the final volume was adjusted to 20 μl. 0.2 μl of [α-^32P] dGTP was used for labeling of reverse transcription products. The RNA and the primer were incubated at 65° C. before the other substrates were added. Then, the reaction was performed at 42° C. for 1 hour. The reaction products were subjected to denatured agarose electrophoresis and electrophoretic patterns were examined by autoradiography to evaluate recoveries of full length cDNAs and rates of short products obtained from incomplete elongation. The results are shown in Lane 1 of FIG. 1.
The following buffer condition for reverse transcription was used to verify that addition of oligosaccharide stabilizes the enzyme reaction: 50 mM Tris-HCl, pH 8.3, 75 mM KCl, 3 mM MgCl2, 10 mM dithiothreitol, each 0.75 mM of dNTPs (dATP, dGTP, dCTP, dTTP), 20% (w/v) trehalose and 20% (v/v) glycerol.
1 μg of template RNA, 400 ng of primer (20 mer SK primer) and 200 units of Superscript II were reacted in 24 μl of aqueous solution under the above buffer condition. 0.2 μl of [α-^32P] dGTP was used for labeling of reverse transcription products. […] The primer and the template RNAs were annealed at 37° C. for 2 minutes and the enzyme activity was measured at 60° C.
The reaction products were subjected to denaturing agarose electrophoresis as described above, and electrophoretic patterns were examined by autoradiography to evaluate recoveries of full length cDNAs and rates of short products obtained from incomplete elongation.

restriction enzyme Sty I = test: Sty I restriction enzyme digestion of λ DNA at 37-60° C. (agarose gel, image analysis of 1 kbp band); conditions: suitable concentration; betaine 0-0.6M or sarcosine 0-3.6M; 37, 45, 50, 55 or 60° C. for 1 hour
Protocol: Reaction solutions (20 μl each) containing a restriction enzyme, Sty I 0.5 units, its substrate, λ DNA 0.5 μg and betaine 0-0.6M or sarcosine 0-3.6M were incubated at 37, 45, 50, 55 or 60° C. for 1 hour. In order to prevent initiation of enzyme reaction before the incubation, the samples were quickly prepared on ice. Upon incubation, 0.25% bromophenol blue, 0.26% XC (xylene cyanol), 30% glycerol and 120 mM EDTA (4 μl) was added to the reaction solution to terminate the reaction. The resulting solution was heated at […] for 5 minutes to melt cos sites and subjected to electrophoresis using 0.8% agarose gel containing 0.05% EtBr.
After electrophoresis, image analysis of the gels was conducted. Enzyme activity was represented by comparing strength of bands appeared at 1 kbp (with arrow). Regarding the samples using betaine, the standard (100) is the band strength obtained from the sample using 0 M of betaine and incubated at 37° C. Regarding the samples using sarcosine, the standard (100) is the band strength obtained from the sample using 0 M of sarcosine and incubated at 37° C.

[2] = target: T1, reverse transcriptase Superscript II; test: Reverse transcription activity of Superscript II at elevated temperature (cDNA synthesis from in vitro transcribed RNA, denaturing agarose electrophoresis, autoradiography)

Compound	electrophoretic pattern: full length cDNAs versus short products from prematurely terminated synthesis [1]	also measured
OC[C@@H](O)[C@H](O)[C@@H](O)CO [xylitol]	the amount of products obtained from prematurely terminated synthesis became very small and full length products were synthesized	
C[N+](C)(C)CC(=O)O [betaine]	the amount of products obtained from prematurely terminated synthesis became very small and full length products were synthesized	thermal activation of restriction enzyme (relative activity of Sty I) (restriction enzyme Sty I): thermally activated
OC[C@H]1O[C@H](O[C@H]2O[C@H](CO)[C@@H](O)[C@H](O)[C@H]2O)[C@H](O)[C@@H](O)[C@@H]1O [trehalose]	the amount of products obtained from prematurely terminated synthesis became very small and full length products were synthesized	Superscript II activity compared with control reaction in standard buffer ([2]; normal temperature (42° C.), 20% (w/v) trehalose and 20% (v/v) glycerol): higher activity than the control reaction; electrophoretic pattern: products from premature termination of reverse transcription ([2]; reaction at 42° C., 20% trehalose and 20% glycerol (Lane 2)): products resulted from premature termination as mentioned above were also observed
CNCC(=O)O [sarcosine]		thermal activation of restriction enzyme (relative activity of Sty I) (restriction enzyme Sty I): thermally activated
Triton X100		amount of incomplete reverse transcription products when added to the Lane 3 condition ([1]; 60° C., 0.05% Triton X100 plus 20% trehalose and 20% glycerol (Lane 4)): further reduced; effect on enzyme activity when added to the Lane 3 condition ([1]; 60° C., additive plus 20% trehalose and 20% glycerol, BSA 0.125 μg/μl (Lane 5), Triton X100 0.05% (Lane 4)): the whole activity of the reverse transcriptase was slightly reduced
O=C(CO)[C@@H](O)[C@H](O)[C@H](O)CO [levulose]	the amount of products obtained from prematurely terminated synthesis became very small and full length products were synthesized	
OC[C@@H](O)[C@@H](O)[C@H](O)[C@@H](O)CO [sorbitol]	the amount of products obtained from prematurely terminated synthesis became very small and full length products were synthesized	
OC[C@H]1O[C@H](O[C@H]2[C@H](O)[C@@H](O)C(O)O[C@@H]2CO)[C@H](O)[C@@H](O)[C@@H]1O (mixture of isomers) [maltose]	the amount of products obtained from prematurely terminated synthesis became very small and full length products were synthesized	
OC[C@@H](O)C(O)[C@H](O)CO [arabitol]	the amount of products obtained from prematurely terminated synthesis became very small and full length products were synthesized	
